Measured values reported in US7378385B2, “Role for GLP-1 to mediate responses to disparate stressors” (University of Cincinnati, priority 2002, dated 2008).
Where no end group is shown, it is not given here.

How the values were obtained:
HPA axis [1] = test: Effect of central (intracerebroventricular) GLP-1 on the HPA axis, plasma ACTH and corticosterone by RIA; format: in vivo, rats
Protocol: Central GLP1 effects on the HPA axis were assayed as described in Kinzig et al. (2003) J. Neuroscience 21:6163-6170, herein incorporated by reference in its entirety). Ten male Long-Evans rats (275-350 gm) were housed individually in plastic tub cages with a 12 hour light/dark cycle. […] Catheters were made of sterile SILASTIC tubing, the distal end beveled, a small piece sterile suture tied at 4 cm from the distal end, and filled with heparinized saline. The catheter was attached to a 1 ml syringe filled with heparinized saline at the end that remained at the head. Under ketamine ([…], i.p.) and xylazine (1.5 mg/kg i.p.) anesthesia, the rat's abdomen and top of the head were shaved. A midline incision (approx. 8 cm in length) was made beginning at the sternum. An additional incision was made on the skull. The catheter was subcutaneously from the skull incision to the muscle wall lining the intraperitoneal cavity with a pair of straight hemostats. The muscle wall underlying the abdominal skin incision was opened. A small incision was made in the right muscle wall, through which the catheter was pulled into the intraperitoneal cavity. […] The vein was then punctured with a 21 gauge needle, and the catheter was quickly inserted to the 4 cm mark. Heparinized saline (0.5 ml) was slowly pushed through the inserted catheter. One suture was made in the dorsal muscle wall immediately to the right of the insertion site. […]
Ten days after surgery, cannula placement was verified by administering angiotensin II through the cannula (intracerebroventricular, (i3vt)). Catheter patency was also determined 10 days after surgery. […]
Plasma was extracted and subsequently assayed (RIA) for ACTH and corticosterone (CORT). Results from one such experiment are presented in FIG. 1, panels A and B. Results were analyzed by two-way ANOVA and Tukey's HSD test.
Plasma ACTH and corticosterone concentrations were determined using ^125I-labeled rat ACTH and corticosterone kits according to manufacturers' instructions. […]

HPA axis [2] = test: Peripheral (intraperitoneal) GLP-1 effects on the HPA axis; format: in vivo, rats; conditions: peripheral administration of GLP-1
Protocol: Plasma ACTH and corticosterone concentrations were determined using ^125I-labeled rat ACTH and corticosterone kits according to manufacturers' instructions. The limits of detection for each kit are 15 pg/ml and 8 ng/ml, respectively. For both ACTH and corticosterone assays, all plasma samples were run in duplicate in single assays.
An additional group of six rats was prepared as described in example 1 to test the effects of peripheral administration of GLP-1 on ACTH and corticosterone (CORT) release. Using a within-subjects design, rats were administered saline and 10, 100, and 500 μg/kg GLP-1 intraperitoneally. Each rat received each treatment in a randomized manner, with no less than 5 days between treatments.

[3] = test system: mammalian central nervous system; test: Relative potency in the mammalian central nervous system; format: in vivo

Substance	activation of the HPA axis, dose compared with dose required to decrease food intake (HPA axis [1]; GLP-1 acting in the CNS)	activity of the HPA axis (HPA axis [1]; central administration of GLP-1)	stress response (HPA axis [1]; in vivo)	activity of the HPA axis (HPA axis [2])	potency relative to GLP-1(7-36) amide [3]
GLP-1: post-translational product of preproglucagon; ligand of the GLP-1 receptor (HAEGTFTSDVSSYLEGQAAKEFIAWLVKGR; ends and bridges not checked; UniProt P01275 98-127, looked up)	potent activation of the HPA axis at doses lower than that required to decrease food intake	excites the HPA axis	increases the stress response	does not	
exendin 4: GLP-1 receptor agonist					at least 20 times
